Like-named read-outs stand apart in the source and are kept apart here.

A word on the IC50: it is the concentration needed to halve the response being measured. The low end stands for inhibition by little substance, the high end for a need for much substance.

The subject of data set [1] is NF-κB p65 subunit nuclear translocation. Type of data set: cell-based. Conditions: LPS-stimulated RAW264.7; 5, 10 and 20 μM. How it is done: Cells were pretreated with NPI-1387 (compound 24 under scheme 4 above) at 5, 10 and 20 μM for 1 hr, and then stimulated with 50 ng/ml LPS for 30 min. Coverslips were transferred to clean plates, washed twice in Dulbecco's phosphate buffered saline (DPBS), fixed in 10% formaldehyde for 10 min, and permeabilized with 0.2% Triton X-100 for additional 10 min. Blocking medium (DPBS, 2% BSA, 0.1% Triton X-100) was added for 2 h, and removed by aspiration. Polyclonal goat anti-p65 antibody (Santa Cruz Biotechnology) was added at a 1:1000 dilution for 1 hr. The wells were washed 3 times with DPBS containing 0.1% Triton X-100, and […] of Alexa-488-conjugated anti-goat antibody (1:1000 dilution, Molecular Probes) were added for 30 min. Wells were washed again, and the coverslips were mounted face-down on microscope slides using Vectashield (Vector) mounting medium. Slides were observed under an Olympus fluorescent microscope, images acquired using a Magnafire digital camera, and processed using Adobe Photoshop.

A further data set has as its system Panc1 and HS766T. The experiment in a line: TRAIL resistance of human pancreatic cancer cell lines. Type of data set: cell-based. An excerpt:
Novel diterpene inhibitors of NFκB derived from acanthoic acid (NPI-1342 (Formula IIB-a1) and NPI-1387; compound 24 under scheme 4 above) show measurable effects in human pancreatic cancer cell lines in vitro. Seven of the nine cell lines were moderately sensitive to apoptosis induced by death receptor ligand Tumor Necrosis Factor (TNF) related apoptosis-inducing ligand (TRAIL). […] Specific silencing of NFkB/p65 expression mimicked these effects. Furthermore, combination treatment of Salinosporamide A and either NPI-1342 or NPI-1387 led to induction of apoptosis as measured by PI FACS analysis. Specifically, levels of DNA fragmentation increased from 4% to 50% in HS766T cells and from 4% to 52% in Panc1 cells. The inhibitory effects of NPI-1342, NPI-1387 on NFκB were evaluated by Electromobility Shift Assays and confirmed by confocal microscopy.

A further data set relates to PC-3 colony formation. In words: PC-3 clonogenicity assay. The data set is classed as cell-based. How it is done:
PC-3 cells in 10 cm tissue culture dishes (200 cells/dish) were treated with 5 μM, 10 μM and 20 μM NPI-1387 for 0.5-24 hours in triplicates. DMSO was used as vehicle control. After each time point of drug treatment, the medium was removed, the dishes were washed two times with Dulbecco's phosphate buffered saline (DPBS), and supplied with fresh medium. Cells were cultured for 10 days with the medium replenished every 3 days. On the 10th day, dishes were washed with cold DPBS, fixed for 10 minutes in ice-cold 100% methanol at 4° C., and the colonies were stained with 0.5% (w/v) crystal violet. Colonies were counted manually, and the results expressed as % of colonies in relation to their respective vehicle control.

Data set [2] in a line: 48 hr cytotoxicity, B16-F10 melanoma. The data set is classed as cell-based, murine. The settings on record: mouse, B16-F10 melanoma cells, 10% FBS, individual values. How it is done: (§1) B16-F10 (ATCC; CRL-6475), DU 145 (ATCC; HTB-81), HEK293 (ATCC; CRL-1573), HT-29 (ATCC; HTB-38), LoVo (ATCC; CCL-229), MDA-MB-231 (ATCC; HTB-26), MIA PaCa-2 (ATCC; CRL-1420), NCI-H292 (ATCC; CRL-1848), OVCAR-3 (ATCC, HTB-161), PANC-1 (ATCC; CRL-1469), PC-3 (ATCC; CRL-1435), RPMI 8226 (ATCC; CCL-155) and U266 (ATCC; TIB-196) are maintained in appropriate culture media. The cells are cultured in an incubator at 37° C. in 5% CO2 and 95% humidified air.
(§2) For cell growth inhibition assays, B16-F10, DU 145, HEK293, HT-29, LoVo, MDA-MB-231, MIA PaCa-2, NCI-H292, OVCAR-3, PANC-1, PC-3, RPMI 8226 and U266 cells are seeded at 1.25×10^3, 5×10^3, 1.5×10^4, 5×10^3, 5×10^3, 1×10^4, 2×10^3, 4×10^3, 1×10^4, 7.5×10^3, 5×10^3, 2×10^4, 2.5×10^4 cells/well respectively in 90 μl complete media into Corning 3904 black-walled, clear-bottom tissue culture plates. 20 mM stock solutions of compounds of Formula II, IIA, and IIB are prepared in 100% DMSO, aliquoted and stored at −80° C. Compounds of Formula II, IIA, and IIB are serially diluted and added in triplicate to the test wells resulting in final concentrations ranging from of 20 μM to 0.2 pM. The plates are returned to the incubator for 48 hours. The final concentration of DMSO is 0.25% in all samples.
Following 48 hours of drug exposure, 10 μl of 0.2 mg/ml resazurin (obtained from Sigma-Aldrich Chemical Co.) in Mg^2+, Ca^2+ free phosphate buffered saline is added to each well and the plates are returned to the incubator for 3-6 hours. Since living cells metabolize Resazurin, the fluorescence of the reduction product of Resazurin is measured using a Fusion microplate fluorometer (Packard Bioscience) with λex=535 nm and λem=590 nm filters. Resazurin dye in medium without cells was used to determine the background, which is subtracted from the data for all experimental wells.

Another data set has as its system U266 (MM). The experiment in a line: 48 hr cytotoxicity, U266. Type of data set: cell-based, human. How it is done:
as §1
as §2, with “The plates are returned to the incubator for 48 hours. The final concentration of DMSO is 0.25% in all samples.” left out
Following 48 hours of drug exposure, 10 μl of 0.2 mg/ml resazurin (obtained from Sigma-Aldrich Chemical Co.) in Mg^2+, Ca^2+ free phosphate buffered saline is added to each well and the plates are returned to the incubator for 3-6 hours. Since living cells metabolize Resazurin, the fluorescence of the reduction product of Resazurin is measured using a Fusion microplate fluorometer (Packard Bioscience) with λex=535 nm and λem=590 nm filters. […]
The cytotoxicity assays were performed by seeding individual cell lines at appropriate density in the 96 well flat-bottomed plates and allowed to attach for 24 hours at 37° C., 5% CO2 and 95% humidified air (RPMI 8226 and U266 cells were plated in 96 well plates on the day of compound addition). […] Cell viability was assessed 48 hours later by measuring the fluorescence of the reduction product of Resazurin by a Fusion microplate fluorometer (PerkinElmer) with λex=535 nm and λem=590 nm filters. […]

As to `C=CC(=O)C1(C)CCCC2(C)C3=CCC(C)(C=C)C[C@@H]3CC[C@H]12` (stereo in doubt) [NPI-1387, 1-[(1S,4aS,7R)-1,4a,7-Trimethyl-7-vinyl-1,2,3,4,4a,6,7,8,8a,9,10,10a-dodecahydro-1-phenanthrenyl]-2-propen-1-one], in data set [1], the “nuclear translocation of NF-κB (p65) / activated IRAK1” value was “inhibits the NF-κB p65 subunit nuclear translocation in a dose-dependent manner”. For the same compound, in the data set on Panc1 and HS766T, the TRAIL resistance entry is “reversed TRAIL resistance”. Moreover, the PC-3 colony formation result in the data set on PC-3 colony formation (5 μM, 10 μM and 20 μM for 0.5-24 hours) was “inhibits the colony formation of PC-3 cancer cells in a time-dependent and dose-dependent fashion”; in the data set with PC-3 colony formation (exposure of 6 hr to 20 μM) it was “completely abolish”. The cytotoxicity at 48 h in data set [2] was determined as 94%. Besides, the IC50 in the data set on U266 (MM) stood at 7 ± 1.9 µM; in the data set with U266 (MM) (Homo sapiens, U-266, 48 h), 8.7 ± 6.4 µM.

These data come from patent US7893299B2, “Interleukin-1 and tumor necrosis factor-αmodulators; syntheses of such modulators and methods of using such modulators” (Nereus Pharmaceuticals, Inc., priority 2005, dated 2011).
